{
  "source": "ChEMBL document CHEMBL1148565",
  "about": "(Bioorg Med Chem Lett, 2006)",
  "molecular_target": "Carbonic anhydrase 12 (Homo sapiens, UniProt O43570)",
  "sequence (O43570 whole entry)": "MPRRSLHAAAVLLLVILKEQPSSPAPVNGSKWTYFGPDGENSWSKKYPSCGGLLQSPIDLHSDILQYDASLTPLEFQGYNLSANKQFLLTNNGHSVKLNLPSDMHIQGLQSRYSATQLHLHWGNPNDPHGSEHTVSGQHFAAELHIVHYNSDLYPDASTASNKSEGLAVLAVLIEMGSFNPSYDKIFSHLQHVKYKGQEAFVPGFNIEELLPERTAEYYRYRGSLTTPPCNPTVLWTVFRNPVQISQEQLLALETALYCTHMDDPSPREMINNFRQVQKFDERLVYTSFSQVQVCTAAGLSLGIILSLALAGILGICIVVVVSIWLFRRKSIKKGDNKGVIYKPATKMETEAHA",
  "description": "Inhibitory activity against cloned human CA12",
  "data": [
    {"compound": "Cc1ccc(-c2cc(C(F)(F)F)nn2-c2ccc(S(N)(=O)=O)cc2)cc1", "note": "[CELECOXIB]", "values": [
      {"measurement": "Ki", "result": 0.018, "unit": "µM"}
    ]}
  ]
}
